This passage reports IC50 results from BindingDB's records for doi:10.1016/j.bmcl.2008.08.104 (Genomics Institute of The Novartis Research Foundation, 2008).

Test [1] is described as follows: Inhibition of TEL fused Lck-mediated proliferation of TEL-Lck transformed mouse BA/F3 cells after 48 hrs by bright-glo luciferase assay.
Test [2] can be described thus: Inhibition of TEL fused Src-mediated proliferation of TEL-Src transformed mouse BA/F3 cells after 48 hrs by bright-glo luciferase assay.
Test [3] in a line: Inhibition of TEL fused InsR-mediated proliferation of TEL-InsR transformed mouse BA/F3 cells after 48 hrs by bright-glo luciferase assay.
Test [4] is described as follows: Inhibition of TEL fused Lyn-mediated proliferation of TEL-Lyn transformed mouse BA/F3 cells after 48 hrs by bright-glo luciferase assay.
Test [5] in a line: Inhibition of TEL fused KDR-mediated proliferation of TEL-KDR transformed mouse BA/F3 cells after 48 hrs by bright-glo luciferase assay.

For `CCN(CC)CCCCNc1cc(-n2c(Nc3c(C)cccc3Cl)nc3ccccc32)ncn1` [N-(2-chloro-6-methylphenyl)-1-(6-(4-(diethylamino)butylamino)pyrimidin-4-yl)-1H-benzo[d]imidazol-2-amine], in test [1], the IC50 was found to be 5040 nM.
The same measure, in the same setting: the result for `Cc1cc(C)c(Nc2nc3ccccc3n2-c2cc(N)ncn2)c(Br)c1` [1-(6-aminopyrimidin-4-yl)-N-(2-bromo-4,6-dimethylphenyl)-1H-benzo[d]imidazol-2-amine] reads 1170 nM.
On to `Cc1cccc(Cl)c1Nc1nc2ccccc2n1-c1cc(Nc2ccc(CCN3CCOCC3)cn2)ncn1` [N-(2-chloro-6-methylphenyl)-1-(6-(5-(2-morpholinoethyl)pyridin-2-ylamino)pyrimidin-4-yl)-1H-benzo[d]imidazol-2-amine], for which the IC50 in test [2] stood at 147 nM; in test [3] it was 5160 nM; in test [4], 215 nM; in test [5] it was 1010 nM.
Regarding `Cc1cccc(Cl)c1Nc1nc2ccccc2n1-c1cc(Nc2ncnc(NCCN3CCOCC3)c2C)ncn1` [N4-(6-(2-(2-chloro-6-methylphenylamino)-1H-benzo[d]imidazol-1-yl)pyrimidin-4-yl)-5-methyl-N6-(2-morpholinoethyl)pyrimidine-4,6-diamine], the IC50 in test [1] came out at 359 nM.
Still for that read-out and setting: the value for `Cc1cccc(Cl)c1Nc1nc2ccccc2n1-c1cc(NN2CCOCC2)ncn1` [N-(2-chloro-6-methylphenyl)-1-(6-(morpholinoamino)pyrimidin-4-yl)-1H-benzo[d]imidazol-2-amine] was above 10000 nM; that for `Cc1cccc(Cl)c1Nc1nc2ccccc2n1-c1cc(N2CCOCC2)ncn1` [N-(2-chloro-6-methylphenyl)-1-(6-morpholinopyrimidin-4-yl)-1H-benzo[d]imidazol-2-amine] was above 10000 nM.
For `Cc1nc(Nc2cc(-n3c(Nc4c(C)cccc4Cl)nc4ccccc43)ncn2)cc(N2CCN(CCO)CC2)n1` [2-(4-(6-(6-(2-(2-chloro-6-methylphenylamino)-1H-benzo[d]imidazol-1-yl)pyrimidin-4-ylamino)-2-methylpyrimidin-4-yl)piperazin-1-yl)ethanol], the IC50 in test [2] turned out to be 5 nM; in test [3] it was 2340 nM; in test [4] it was 30 nM; in test [5] it was 356 nM.
In test [1], `Cc1cccc(Cl)c1Nc1nc2ccccc2n1-c1cc(Nc2cc(CN3CCOCC3)ccn2)ncn1` [N-(2-chloro-6-methylphenyl)-1-(6-(4-(morpholinomethyl)pyridin-2-ylamino)pyrimidin-4-yl)-1H-benzo[d]imidazol-2-amine] had an IC50 of 17 nM. In other words, the double-digit nanomolar range.
Same read-out and setting: the value for `Cc1cc(C)c(Nc2nc3ccccc3n2-c2cc(N)ncn2)c(C)c1` [1-(6-aminopyrimidin-4-yl)-N-mesityl-1H-benzo[d]imidazol-2-amine] was 583 nM; that for `Cc1cccc(Cl)c1Nc1nc2ccccc2n1-c1cc(Cl)ncn1` [N-(2-chloro-6-methylphenyl)-1-(6-chloropyrimidin-4-yl)-1H-benzo[d]imidazol-2-amine] was 5700 nM.
